Assay results as given in patent US20100047333A1, “Modified Peptides and Their Use for the Treatment of Autoimmune Diseases” (priority 2001, published 2010).

Legend:
[1] = tested on: mice; assay: survival rate of mice after multiple administrations of peptide; format: in vivo
Source text: (§1) Other characteristics and advantages of the invention will become apparent from the example which follows relating to the preparation of the modified peptide and to the study of its activity against an autoimmune disease. Systemic lupus presents an easy clinical symptom to follow because of the large urinary protein excretion that accompanies the disorder that results from an associated renal condition, glomerulonephritis. Levels of protein secretion were followed to assess the effectiveness of the modified peptide in addressing the underlying autoimmune disorder.
(§2) The specific peptide […] (SEQ ID NO: 1), which is a 21-amino acid sequence of the 70 kDa snRNP protein corresponding to residues 131-151, was synthesized in its phosphorylated form (in the 10 position—P10). This self-protein, which is normally present in each cell, is recognized by T-cells and antibodies from lupus patients and mice as an antigen toward which the immune system is reacting, generating a so-called autoimmune reaction.

[2] = tested on: CD4+ T cells; assay: production of IL-2 (interluekin-2) by CD4+ T cells; format: cell-based, mice
Source text: as §2

[3] = tested on: mice; assay: urine protein excretion in treated mice; format: in vivo
Source text: as §1, §2

RIHMVYSKRSGKPRGYAFIEY (listed as Homo sapiens) [natural (non-phosphorylated) peptide, reference compound]
improvement in the survival rate (in words) ([1]; mice, after administration of the peptide): unable to improve significantly the survival rate

RIHMVYSKRSGKPRGYAFIEY (lysine acetylation, position unspecified; listed as Homo sapiens) [acetylated peptide]
activity (preliminary data) ([1]; preliminary data, compared with the phosphorylated peptide P10): even stronger activity

RIHMVYSKRSGKPRGYAFIEY [P10]
survival rate ([1]; mice, after multiple administrations (similar to a vaccine), compared to 0%): 55% | production of IL-2 (interluekin-2) by CD4+ T cells [2]: increased significantly | urine protein excretion [3]: reduced
